This note sets out measurements from patent publication US10941169B2, “Crystal of cyclic phosphonic acid sodium salt and method for manufacturing same” (OTSUKA CHEMICAL CO., LTD., priority 2014, dated 2021).

Where a name gives a salt, the structure may show the parent alone.

Data set [1] can be described thus: Stability test at 35° C. (storage, weekly LC purity analysis). Type of data set: physicochemical. The conditions noted are these: stored at 35° C.; for purity in stability test, number of days 0: day 0; for purity in stability test, number of days 7: day 7; for purity in stability test, number of days 14: day 14; for purity in stability test, number of days 21: day 21; for purity in stability test, number of days 28: day 28; for purity in stability test, number of days 56: day 56; for stability (assessment in words): results of Table 1. The protocol: As the amorphous of 2ccPA above, 300 mg of 2ccPA (obtained in Example 3) dissolved in 5 mL of water and freeze-dried was used.
In the stability test, about 15 mg each of the 2ccPA crystal of the present invention, the 2ccPA of a formula described in documents, and an amorphous of 2ccPA were weighed, and individually diluted with 5 mL of acetonitrile/water (1/1). Then, 5 μL each of the diluted solutions was analyzed weekly using the LC-2010CHT (Shimazu Corporation).

Data set [2] is described as follows: Storage stability, hermetically sealed, −20° C. and 35° C. for 3 months. Format: physicochemical. Particulars: stored at −20° C. and 35° C. for 3 months. The source says: The crystal of 2ccPA of the present invention is excellent in storage stability.
The mark [3] stands for this setting: listed as 2ccPA crystal obtained by the production method of the present invention, sodium salt.

Regarding `CCCCCCCC/C=C\CCCCCCCC(=O)OCC1COP(=O)([O-])C1.[Na+]` (stereo not shown) [2ccPA crystal of the present invention, 4-[(Z)-octadec-9-enoyloxymethyl]-2-oxo-1,2-λ^5-oxaphosphorane-2-olate sodium salt], in data set [1] (sodium salt), the “purity in stability test, number of days 0” value (“purity … of days 0” for short) turned out to be 99.561%; the “purity in stability test, number of days 7” value (shortened to “purity … of days 7”) worked out at 99.605%; the “purity in stability test, number of days 14” value (“purity … of days 14” below) is 99.576%; the “purity in stability test, number of days 21” value (shortened to “purity … of days 21”) was 99.631%. Further, in data set [1] (sodium salt), the “purity in stability test, number of days 28” value (“purity … of days 28” for short) amounted to 99.626% and the “purity in stability test, number of days 56” value worked out at 99.493%. In addition, the “purity in stability test, number of days 42” value in data set [1] (day 42) is 99.593%. In data set [1] (setting [3]), the “purity in stability test, number of days 56” value worked out at 99.493% and the “stability (assessment in words)” value is reported as “excellent stability”. Besides, in data set [2], the “storage stability (decrease in purity, decomposition)” value is listed as “little decrease in purity”.
As to `CCCCCCCC/C=C\CCCCCCCC(=O)OCC1COP(=O)(O)C1` (stereo not shown) [A formula described in documents, sodium salt of 9-octadecenoic acid (9Z)-(2-hydroxy-2-oxo-2λ^5-1,2-oxaphosphoran-4-yl)methyl ester], in data set [1], the “purity … of days 0” value was 67.934%; the “purity … of days 7” value stood at 66.665%; the “purity … of days 14” value is 67.517%; the “purity … of days 21” value is on record as 62.77%. Also, in data set [1], the “purity … of days 28” value is reported as 59.841% and the “stability (assessment in words)” value is reported as “unstable”.
Turning to `CCCCCCCC/C=C\CCCCCCCC(=O)OCC1COP(=O)([O-])C1.[Na+]` (stereo not shown) [Amorphous of 2ccPA, sodium salt of 9-octadecenoic acid (9Z)-(2-hydroxy-2-oxo-2λ^5-1,2-oxaphosphoran-4-yl)methyl ester], in data set [1], the “purity … of days 0” value is given as 99.599%; the “purity … of days 7” value is recorded as 83.363%; the “purity … of days 14” value is recorded as 45.02%; the “purity … of days 21” value stood at 34.738%. For the same compound, in data set [1], the “purity … of days 28” value worked out at 27.077% and the “stability (assessment in words)” value is recorded as “unsatisfactory”.
